13 compounds from patent US20230015478A1, “GLP-1 RECEPTOR AGONISTS HAVING IMPROVED PHARMACOLOGICAL AND DRUG DELIVERY PROPERTIES” (priority 2021, published 2023) can be followed below.

Each structure is given as a SMILES string. Numbered stars: 1 amine (or outer) side, 2 acyl side, 3 side chain; on linkers, the order of the positions; unused ones are H or OH. Square brackets hold non-standard residues; d marks the D form. Side chains are listed from the residue outwards. Peptide text beside a SMILES is read from it. * marks the point of attachment. Dap(Nα-HOOC(CH2)16CO)OH = O=C(O)CCCCCCCCCCCCCCCCC(=O)N[C@@H](CN*)C(=O)O; Bip = N[C@@H](Cc1ccc(-c2ccccc2)cc1)C(=O)O; C18 diacid = O=C(O)CCCCCCCCCCCCCCCCC(=O)*; Hydrocinnamoyl(4-I) = O=C(CCc1ccc(I)cc1)*; X2 = O=C(CCc1ccc(I)cc1)N[C@@H](CN*)C(=O)O; αMePhe(2-F) = C[C@](N)(Cc1ccccc1F)C(=O)O; γGlu = O=C(O)[C@H](CCC(=O)[*:2])N[*:1]; hPhe = N[C@@H](CCc1ccccc1)C(=O)O; αMeP = C[C@@]1(C(=O)O)CCCN1; AEEA = NCCOCCOCC(=O)O; Aib = CC(C)(N)C(=O)O

For the experiment, the target named is T1, hGLP1 receptor (Homo sapiens, UniProt P43220).
T1 construct: expressed in transfected cells; host or cells: HEK (human embryonic kidney) cells co-expressing hGLP1 receptor and CRE-Luciferase
Description: cAMP HTRF agonist assay in HEK cells co-expressing hGLP1 receptor and CRE-Luciferase. Format: cell-based. The following applies: for EC50: cAMP EC50, nM (0.1% albumin), Table 6, 0.1% albumin. Summed up:
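HEK cells co-expressing hGLP1R and CRE-luciferase, 1000 cells/well in DPBS with 500 μM IBMX, exposed to peptides or exendin-4 reference for 30 min; 11-point 1:3 series from top 1.0 μM. cAMP measured by HTRF (665/615 nm) after 1 h at room temperature; EC50 from 4-parameter logistic fit.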
Background: In TR-FRET formats the signal depends on donor and acceptor labels being close together.

T1 sequence (P43220 24-463): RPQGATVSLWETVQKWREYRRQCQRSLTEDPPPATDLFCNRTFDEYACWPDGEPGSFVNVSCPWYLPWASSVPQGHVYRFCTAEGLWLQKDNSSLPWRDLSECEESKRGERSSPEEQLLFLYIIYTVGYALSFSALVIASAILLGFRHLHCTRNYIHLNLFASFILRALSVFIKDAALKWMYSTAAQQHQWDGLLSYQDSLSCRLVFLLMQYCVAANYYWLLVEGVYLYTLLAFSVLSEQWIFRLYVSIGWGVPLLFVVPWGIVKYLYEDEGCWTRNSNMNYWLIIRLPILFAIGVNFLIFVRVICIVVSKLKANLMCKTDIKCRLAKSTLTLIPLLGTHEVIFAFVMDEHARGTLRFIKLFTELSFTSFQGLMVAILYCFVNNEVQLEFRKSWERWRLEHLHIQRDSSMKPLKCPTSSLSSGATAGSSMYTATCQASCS

As for `C[C@@H](O)[C@H](NC(=O)CNC(=O)[C@H](CCC(=O)O)NC(=O)C(C)(C)NC(=O)[C@@H](N)Cc1c[nH]cn1)C(=O)N[C@@](C)(Cc1ccccc1F)C(=O)N[C@H](C(=O)N[C@@H](CO)C(=O)N[C@@H](CC(=O)O)C(=O)N[C@@H](Cc1ccc(-c2ccccc2)cc1)C(=O)N[C@@H](CCc1ccccc1)C(=O)NCCOCCOCC(=O)NCCOCCOCC(=O)NCCOCCOCC(=O)NC[C@H](NC(=O)CCc1ccc(I)cc1)C(=O)O)[C@@H](C)O` [4-37, H2N-His-Aib-Glu-Gly-Thr-α-MePhe(2-F)-Thr-Ser-Asp-Bip-Hph-C(O)NH-RY3] (H-H[Aib]EGT[αMePhe(2-F)]TSD[Bip][hPhe][AEEA][AEEA][AEEA]-X2), where the note is “relative to parent 1-4”, the “fold lower potency than the parent peptide (1-4)” value is “equipotency”. The EC50 is the concentration needed to bring the measured effect to its halfway point. Low values mean a more potent agent, high ones a less potent agent. For the compound `C[C@@H](O)[C@H](NC(=O)CNC(=O)[C@H](CCC(=O)O)NC(=O)C(C)(C)NC(=O)[C@@H](N)Cc1c[nH]cn1)C(=O)N[C@@](C)(Cc1ccccc1F)C(=O)N[C@H](C(=O)N[C@@H](CO)C(=O)N[C@@H](CC(=O)O)C(=O)N[C@@H](Cc1ccc(-c2ccccc2)cc1)C(=O)N[C@@H](Cc1ccc(-c2ccccc2)cc1)C(=O)N[C@@H](CCCCNC(=O)COCCOCCNC(=O)CC[C@H](NC(=O)CCCCCCCCCCCCCCCCC(=O)O)C(=O)O)C(N)=O)[C@@H](C)O` [4-48, H2N-His-Aib-Glu-Gly-Thr-α-MePhe(2-F)-Thr-Ser-Asp-Bip-Bip-C(0)NH-RY10] (H-H[Aib]EGT[αMePhe(2-F)]TSD[Bip][Bip]K([AEEA-γGlu-C18 diacid])-NH2), the concentration giving a half-maximal response (EC50) turned out to be 9.7 nM.

For `C[C@@H](O)[C@H](NC(=O)CNC(=O)[C@H](CCC(=O)O)NC(=O)C(C)(C)NC(=O)[C@@H](N)Cc1c[nH]cn1)C(=O)N[C@@](C)(Cc1ccccc1F)C(=O)N[C@H](C(=O)N[C@@H](CO)C(=O)N[C@@H](CC(=O)O)C(=O)N[C@@H](Cc1ccc(-c2ccccc2)cc1)C(=O)N[C@@H](Cc1ccc(-c2ccccc2)cc1)C(=O)N[C@@H](CCCCNC(=O)COCCOCCNC(=O)COCCOCCNC(=O)CC[C@H](NC(=O)CCCCCCCCCCCCCCCCC(=O)O)C(=O)O)C(N)=O)[C@@H](C)O` [4-49, H2N-His-Aib-Glu-Gly-Thr-α-MePhe(2-F)-Thr-Ser-Asp-Bip-Bip-C(O)NH-RY11] (H-H[Aib]EGT[αMePhe(2-F)]TSD[Bip][Bip]K([AEEA-AEEA-γGlu-C18 diacid])-NH2), the response was half-maximal at 5 nM (EC50).

`C[C@@H](O)[C@H](NC(=O)CNC(=O)[C@H](CCC(=O)O)NC(=O)C(C)(C)NC(=O)[C@@H](N)Cc1c[nH]cn1)C(=O)N[C@@](C)(Cc1ccccc1F)C(=O)N[C@H](C(=O)N[C@@H](CO)C(=O)N[C@@H](CC(=O)O)C(=O)N[C@@H](Cc1ccc(-c2ccccc2)cc1)C(=O)N[C@@H](Cc1ccc(-c2ccccc2)cc1)C(=O)N[C@@H](CCCCNC(=O)COCCOCCNC(=O)COCCOCCNC(=O)COCCOCCNC(=O)CC[C@H](NC(=O)CCCCCCCCCCCCCCCCC(=O)O)C(=O)O)C(N)=O)[C@@H](C)O` [4-50, H2N-His-Aib-Glu-Gly-Thr-α-MePhe(2-F)-Thr-Ser-Asp-Bip-Bip-C(O)NH-RY12] (H-H[Aib]EGT[αMePhe(2-F)]TSD[Bip][Bip]K([AEEA-AEEA-AEEA-γGlu-C18 diacid])-NH2) showed an EC50 of 12 nM. For the compound `C[C@@H](O)[C@H](NC(=O)CNC(=O)[C@H](CCC(=O)O)NC(=O)C(C)(C)NC(=O)[C@@H](N)Cc1c[nH]cn1)C(=O)N[C@@](C)(Cc1ccccc1F)C(=O)N[C@H](C(=O)N[C@@H](CO)C(=O)N[C@@H](CC(=O)O)C(=O)N[C@@H](Cc1ccc(-c2ccccc2)cc1)C(=O)N[C@@H](Cc1ccc(-c2ccccc2)cc1)C(=O)NCCOCCOCC(=O)NCCOCCOCC(=O)NCCOCCOCC(=O)N[C@@H](CCCCN)C(N)=O)[C@@H](C)O` [4-57, H2N-His-Aib-Glu-Gly-Thr-α-MePhe(2-F)-Thr-Ser-Asp-Bip-Bip-C(O)NH-RY13] (H-H[Aib]EGT[αMePhe(2-F)]TSD[Bip][Bip][AEEA][AEEA][AEEA]K-NH2), the EC50 worked out at 14 nM. The compound `C[C@@H](O)[C@H](NC(=O)CNC(=O)[C@H](CCC(=O)O)NC(=O)C(C)(C)NC(=O)[C@@H](N)Cc1c[nH]cn1)C(=O)N[C@@](C)(Cc1ccccc1F)C(=O)N[C@H](C(=O)N[C@@H](CO)C(=O)N[C@@H](CC(=O)O)C(=O)N[C@@H](Cc1ccc(-c2ccccc2)cc1)C(=O)N[C@@H](Cc1ccc(-c2ccccc2)cc1)C(=O)NCC(=O)NCC(=O)NCC(=O)N[C@@H](CCCCN)C(N)=O)[C@@H](C)O` [4-58, H2N-His-Aib-Glu-Gly-Thr-α-MePhe(2-F)-Thr-Ser-Asp-Bip-Bip-C(O)NH-RY14] (H-H[Aib]EGT[αMePhe(2-F)]TSD[Bip][Bip]GGGK-NH2) showed an EC50 of 7.7 nM. On to `C[C@@H](O)[C@H](NC(=O)CNC(=O)[C@H](CCC(=O)O)NC(=O)[C@]1(C)CCCN1C(=O)[C@@H](N)Cc1c[nH]cn1)C(=O)N[C@@](C)(Cc1ccccc1F)C(=O)N[C@H](C(=O)N[C@@H](CO)C(=O)N[C@@H](CC(=O)O)C(=O)N[C@@H](Cc1ccc(-c2ccccc2)cc1)C(=O)N[C@@H](Cc1ccc(-c2ccccc2)cc1)C(=O)NCCOCCOCC(=O)NCCOCCOCC(=O)NCCOCCOCC(=O)NC[C@H](NC(=O)CCc1ccc(I)cc1)C(=O)O)[C@@H](C)O` [4-59, H2N-His-α-MePro -Glu-Gly-Thr-α-MePhe(2-F)-Thr-Ser-Asp-Bip-Bip-C(O)NH-RY15] (H-H[αMeP]EGT[αMePhe(2-F)]TSD[Bip][Bip][AEEA][AEEA][AEEA]-X2), for which the half-maximal effective concentration (EC50) was 1.3 nM.

In turn, `C[C@@H](O)[C@H](NC(=O)CNC(=O)[C@H](CCC(=O)O)NC(=O)[C@]1(C)CCCN1C(=O)[C@@H](N)Cc1c[nH]cn1)C(=O)N[C@@](C)(Cc1ccccc1F)C(=O)N[C@H](C(=O)N[C@@H](CO)C(=O)N[C@@H](CC(=O)O)C(=O)N[C@@H](Cc1ccc(-c2ccccc2)cc1)C(=O)N[C@@H](Cc1ccc(-c2ccccc2)cc1)C(=O)NCCOCCOCC(=O)NCCOCCOCC(=O)NC[C@H](NC(=O)CCCCCCCCCCCCCCCCC(=O)O)C(=O)O)[C@@H](C)O` [4-60, H2N-His-α-MePro-Glu-Gly-Thr-α-MePhe(2-F)-Thr-Ser-Asp-Bip-Bip-C(O)NH-RY16] (H-H[αMeP]EGT[αMePhe(2-F)]TSD[Bip][Bip][AEEA][AEEA]-{Dap(Nα-HOOC(CH2)16CO)OH}) showed an EC50 of 2.2 nM. With `C[C@@H](O)[C@H](NC(=O)CNC(=O)[C@H](CCC(=O)O)NC(=O)[C@]1(C)CCCN1C(=O)[C@@H](N)Cc1c[nH]cn1)C(=O)N[C@@](C)(Cc1ccccc1F)C(=O)N[C@H](C(=O)N[C@@H](CO)C(=O)N[C@@H](CC(=O)O)C(=O)N[C@@H](Cc1ccc(-c2ccccc2)cc1)C(=O)N[C@@H](Cc1ccc(-c2ccccc2)cc1)C(=O)N[C@@H](CCCCNC(=O)COCCOCCNC(=O)COCCOCCNC(=O)CC[C@H](NC(=O)CCCCCCCCCCCCCCCCC(=O)O)C(=O)O)C(N)=O)[C@@H](C)O` [4-61, H2N-His-α-MePro-Glu-Gly-Thr-α-MePhe(2-F)-Thr-Ser-Asp-Bip-Bip-C(O)NH-RY17] (H-H[αMeP]EGT[αMePhe(2-F)]TSD[Bip][Bip]K([AEEA-AEEA-γGlu-C18 diacid])-NH2), the concentration giving a half-maximal response (EC50) was 272 nM. Regarding `C[C@@H](O)[C@H](NC(=O)CNC(=O)[C@H](CCC(=O)O)NC(=O)[C@]1(C)CCCN1C(=O)[C@@H](N)Cc1c[nH]cn1)C(=O)N[C@@](C)(Cc1ccccc1F)C(=O)N[C@H](C(=O)N[C@@H](CO)C(=O)N[C@@H](CC(=O)O)C(=O)N[C@@H](Cc1ccc(-c2ccccc2)cc1)C(=O)N[C@@H](Cc1ccc(-c2ccccc2)cc1)C(=O)NC(C)(C)C(=O)NCCOCCOCC(=O)NCCOCCOCC(=O)NCCOCCOCC(=O)NC[C@H](NC(=O)CCc1ccc(I)cc1)C(=O)O)[C@@H](C)O` [4-62, H2N-His-α-MePro-Glu-Gly-Thr-α-MePhe(2-F)-Thr-Ser-Asp-Bip-Bip-C(O)NH-RY18] (H-H[αMeP]EGT[αMePhe(2-F)]TSD[Bip][Bip][Aib][AEEA][AEEA][AEEA]-X2), the concentration giving a half-maximal response (EC50) was 1.4 nM.

`C[C@@H](O)[C@H](NC(=O)CNC(=O)[C@H](CCC(=O)O)NC(=O)[C@]1(C)CCCN1C(=O)[C@@H](N)Cc1c[nH]cn1)C(=O)N[C@@](C)(Cc1ccccc1F)C(=O)N[C@H](C(=O)N[C@@H](CO)C(=O)N[C@@H](CC(=O)O)C(=O)N[C@@H](Cc1ccc(-c2ccccc2)cc1)C(=O)N[C@@H](Cc1ccc(-c2ccccc2)cc1)C(=O)NC(C)(C)C(=O)NCCOCCOCC(=O)NCCOCCOCC(=O)NC[C@H](NC(=O)CCCCCCCCCCCCCCCCC(=O)O)C(=O)O)[C@@H](C)O` [4-63, H2N-His-α-MePro-Glu-Gly-Thr-α-MePhe(2-F)-Thr-Ser-Asp-Bip-Bip-C(O)NH-RY19] (H-H[αMeP]EGT[αMePhe(2-F)]TSD[Bip][Bip][Aib][AEEA][AEEA]-{Dap(Nα-HOOC(CH2)16CO)OH}): the EC50 is 1.2 nM. The same measure, in the same setting: under `C[C@@H](O)[C@H](NC(=O)CNC(=O)[C@H](CCC(=O)O)NC(=O)[C@]1(C)CCCN1C(=O)[C@@H](N)Cc1c[nH]cn1)C(=O)N[C@@](C)(Cc1ccccc1F)C(=O)N[C@H](C(=O)N[C@@H](CO)C(=O)N[C@@H](CC(=O)O)C(=O)N[C@@H](Cc1ccc(-c2ccccc2)cc1)C(=O)N[C@@H](Cc1ccc(-c2ccccc2)cc1)C(=O)NC(C)(C)C(=O)N[C@@H](CCCCNC(=O)COCCOCCNC(=O)COCCOCCNC(=O)CC[C@H](NC(=O)CCCCCCCCCCCCCCCCC(=O)O)C(=O)O)C(N)=O)[C@@H](C)O` [4-64, H2N-His-α-MePro-Glu-Gly-Thr-α-MePhe(2-F)-Thr-Ser-Asp-Bip-Bip-C(O)NH.RY20] (H-H[αMeP]EGT[αMePhe(2-F)]TSD[Bip][Bip][Aib]K([AEEA-AEEA-γGlu-C18 diacid])-NH2) stands 453 nM. Same read-out and setting: under `C[C@@H](O)[C@H](NC(=O)CNC(=O)[C@H](CCC(=O)O)NC(=O)[C@]1(C)CCCN1C(=O)[C@@H](N)Cc1c[nH]cn1)C(=O)N[C@@](C)(Cc1ccccc1F)C(=O)N[C@H](C(=O)N[C@@H](CO)C(=O)N[C@@H](CC(=O)O)C(=O)N[C@@H](Cc1ccc(-c2ccccc2)cc1)C(=O)N[C@@H](Cc1ccc(-c2ccccc2)cc1)C(=O)NCCOCCOCC(=O)N[C@@H](CCCCNC(=O)CCc1ccc(I)cc1)C(N)=O)[C@@H](C)O` [4-66, H2N-His-α-MePro-Glu-Gly-Thr-α-MePhe(2-F)-Thr-Ser-Asp-Bip-Bip-C(O)NH-RY22] (H-H[αMeP]EGT[αMePhe(2-F)]TSD[Bip][Bip][AEEA]K(Hydrocinnamoyl(4-I))-NH2) stands 2.9 nM.
